Reference: patent US20060134195A1, “Mannose-based fast dissolving tablets” (priority 2002, published 2006)
Several values for one entry are separate records, joined by “and”; a condition that tells them apart may be missing. Identical values can stand only once. Like-named read-outs stand apart in the source and are kept apart here.

Experiments:
[1] = Tablet strength graded 1-5 by hand and by dropping the tablet; assay type: physicochemical; design: key: strength grade on a 1-5 scale
Protocol: (§1) A variety of candidate materials were used to make compressed tablets, and the tablet properties, such as strength and disintegration time, were examined. Particles of each material were compressed under different pressure by a Carver press. The hardness of the tablet was tested by hand for initial qualitative measurement and also by dropping the tablet from a certain height onto the laboratory bench top or to the floor. The tablet strength was graded by assigning a number ranging from 1-5. […] Each tablet was placed into 5 mL water and observed for 30 seconds to see if it disintegrated and dissolved in that time period.

[2] = Tablet placed into 5 mL water and observed for 30 seconds for disintegration and dissolution; assay type: physicochemical
Protocol: as §1

[3] = compression pressure 35.1 MPa, 5 mL water, 30 seconds
[4] = compression pressure 105 MPa, 5 mL water, 30 seconds
[5] = compression pressure 70.2 MPa, 5 mL water, 30 seconds
[6] = summary of the materials survey, pressure not stated

Molecule: CC(=O)Oc1ccccc1C(=O)O [Aspirin, reference compound]
- Tablet Strength ([1]; compression pressure 35.1 MPa): 2
- Tablet Strength ([1]; compression pressure 70.2 MPa): 3
- Tablet Strength ([1]; compression pressure 105 MPa): 4

Molecule: OC[C@H]1O[C@@H]2O[C@H]3[C@H](O)[C@@H](O)[C@@H](O[C@H]4[C@H](O)[C@@H](O)[C@@H](O[C@H]5[C@H](O)[C@@H](O)[C@@H](O[C@H]6[C@H](O)[C@@H](O)[C@@H](O[C@H]7[C@H](O)[C@@H](O)[C@@H](O[C@H]8[C@H](O)[C@@H](O)[C@@H](O[C@H]1[C@H](O)[C@H]2O)O[C@@H]8CO)O[C@@H]7CO)O[C@@H]6CO)O[C@@H]5CO)O[C@@H]4CO)O[C@@H]3CO [Beta-Cyclodextrin]
- Disintegration Characteristics [2, 3]: No disintegration.
- Disintegration Characteristics [2, 4]: No disintegration.
- Tablet Strength ([1]; compression pressure 35.1 MPa): 4
- Tablet Strength ([1]; compression pressure 105 MPa): 4

Molecule: Cn1c(=O)c2c(ncn2C)n(C)c1=O [Caffeine, reference compound]
- Disintegration Characteristics [2, 5]: Breaking into particles after 20 sec.
- Tablet Strength ([1]; compression pressure 35.1 MPa): 3
- Tablet Strength ([1]; compression pressure 70.2 MPa): 4

Molecule: CC(=O)[O-].CC(=O)[O-].[Ca+2] [Calcium Acetate]
- Disintegration Characteristics [2]: No disintegration.
- Tablet Strength [1]: 4

Molecule: O=C([O-])[O-].[Ca+2] [Calcium Carbonate]
- Disintegration (screening summary) [2]: fast disintegration
- Tablet Strength [1]: 2

Molecule: [Ca+2].[Cl-].[Cl-] [Calcium Chloride]
- Tablet Strength [1]: 4

Molecule: O=P([O-])(O)O.O=P([O-])(O)O.[Ca+2] [Calcium Phosphate, Monobasic]
- Tablet Strength ([1]; compression pressure 105 MPa): 3

Molecule: O=P([O-])([O-])O.[Ca+2] [DITAB, Calcium Phosphate, Dibasic]
- Disintegration (screening summary) [2, 6]: fast disintegration
- Tablet Strength ([1]; compression pressure 70.2 MPa): 4

Molecule: N[C@@H](CCC(=O)O)C(=O)O [Glutamic acid]
- Disintegration (screening summary) [2, 6]: fast disintegration
- Tablet Strength ([1]; compression pressure 105 MPa): 3

Molecule: NCC(=O)O [Glycine]
- Disintegration (screening summary) [2, 6]: fast disintegration
- Tablet Strength ([1]; compression pressure 105 MPa): 2

Molecule: CC(C)Cc1ccc(C(C)C(=O)O)cc1 (stereo not shown) [Ibuprofen, reference compound]
- Tablet Strength ([1]; compression pressure 70.2 MPa): 3

Molecule: O.OC[C@H]1O[C@@H](O[C@H]2[C@H](O)[C@@H](O)C(O)O[C@@H]2CO)[C@H](O)[C@@H](O)[C@H]1O (stereo partly shown) [Lactose monohydrate]
- Tablet Strength ([1]; compression pressure 70.2 MPa): 3

Molecule: OC[C@H]1O[C@H](O[C@H]2[C@H](O)[C@@H](O)[C@H](O)O[C@@H]2CO)[C@H](O)[C@@H](O)[C@@H]1O [Maltose]
- Disintegration Characteristics [2, 5]: Total disintegration of the entire tablet.
- Disintegration (screening summary) [2, 6]: fast disintegration
- Tablet Strength ([1]; compression pressure 70.2 MPa): 3

Molecule: OC[C@@H](O)[C@@H](O)[C@H](O)[C@H](O)CO [Mannitol]
- Tablet Strength ([1]; compression pressure 70.2 MPa): 2

Molecule: O=C(O)c1ccccc1O [Salicylic Acid]
- Disintegration Characteristics [2, 5]: No disintegration.
- Disintegration Characteristics [2, 4]: No disintegration.
- Tablet Strength ([1]; compression pressure 35.1 MPa): 1
- Tablet Strength ([1]; compression pressure 70.2 MPa): 2
- Tablet Strength ([1]; compression pressure 105 MPa): 2

Molecule: O=C([O-])[O-].[Na+].[Na+] [Sodium Carbonate]
- Disintegration Characteristics [2]: No disintegration.
- Tablet Strength [1]: 4 and 3

Molecule: [Cl-].[Na+] [Sodium Chloride]
- Disintegration Characteristics [2, 5]: No disintegration.
- Disintegration Characteristics [2, 4]: No disintegration.
- Tablet Strength ([1]; compression pressure 70.2 MPa): 2
- Tablet Strength ([1]; compression pressure 105 MPa): 2

Molecule: O=C1NS(=O)(=O)c2ccccc21.[Na] [Sodium Saccharin]
- Disintegration Characteristics [2, 3]: Instant disintegration
- Disintegration Characteristics [2, 5]: Instant disintegration
- Disintegration Characteristics [2, 4]: Instant disintegration
- Disintegration (screening summary) [2, 6]: fast disintegration
- Tablet Strength ([1]; compression pressure 35.1 MPa): 1
- Tablet Strength ([1]; compression pressure 70.2 MPa): 2
- Tablet Strength ([1]; compression pressure 105 MPa): 2

Molecule: OC[C@H]1O[C@@](CO)(O[C@H]2O[C@H](CO)[C@@H](O)[C@H](O)[C@H]2O)[C@@H](O)[C@@H]1O [Sucrose]
- Disintegration Characteristics ([2]; compression pressure 91.3 MPa, 5 mL water, 30 seconds): No improvement.
- Tablet Strength ([1]; compression pressure 70.2 MPa): 2
- Tablet Strength ([1]; compression pressure 91.3 MPa): 2

Molecule: Cn1c(=O)c2[nH]cnc2n(C)c1=O [Theophyline, reference compound]
- Disintegration Characteristics [2, 3]: No disintegration.
- Disintegration Characteristics [2, 5]: No disintegration.
- Disintegration Characteristics [2, 4]: No disintegration.

Molecule: CC(=O)[O-].CC(=O)[O-].[Zn+2] [Zinc Acetate]
- Disintegration Characteristics [2]: No disintegration.
- Tablet Strength [1]: 3

Molecule: Calcium Gluconate
- Tablet Strength ([1]; compression pressure 35.1 MPa): 4
